Laboratory results: patent publication US7074789B2, “Kinase inhibitors” (Amgen Inc., priority 1999, dated 2006)

Key:
Assay type in all cases: biochemical
[1] = molecular target: T1, EGFR (Homo sapiens, UniProt P00533); assay: Kinase inhibition assay (33P transfer), EGFR; conditions: Table 2, kinase inhibition class; read-out: EGFR-1
T1 construct: Kinases are expressed as either kinase domains or full length constructs; made in house
Summary of the method: (§1)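 Recombinant kinase domains or full-length GST- or His-tagged constructs, from E. coli or baculovirus/High Five cells, sometimes with regulatory polypeptides. Transfer of 33P from ATP to plate-bound poly(Glu,Tyr) 4:1 or poly(Arg,Ser) 3:1 counted by liquid scintillation after phosphoric acid wash; IC50 is the concentration halving incorporation.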

[2] = molecular target: T2, IGFR-1 (Homo sapiens, UniProt P08069); assay: Kinase inhibition assay, IGFR-1 (Table 2); conditions: Table 2, kinase inhibition class
T2 construct: Kinases are expressed as either kinase domains or full length constructs; made in house
T2 sequence (P08069 31-1367): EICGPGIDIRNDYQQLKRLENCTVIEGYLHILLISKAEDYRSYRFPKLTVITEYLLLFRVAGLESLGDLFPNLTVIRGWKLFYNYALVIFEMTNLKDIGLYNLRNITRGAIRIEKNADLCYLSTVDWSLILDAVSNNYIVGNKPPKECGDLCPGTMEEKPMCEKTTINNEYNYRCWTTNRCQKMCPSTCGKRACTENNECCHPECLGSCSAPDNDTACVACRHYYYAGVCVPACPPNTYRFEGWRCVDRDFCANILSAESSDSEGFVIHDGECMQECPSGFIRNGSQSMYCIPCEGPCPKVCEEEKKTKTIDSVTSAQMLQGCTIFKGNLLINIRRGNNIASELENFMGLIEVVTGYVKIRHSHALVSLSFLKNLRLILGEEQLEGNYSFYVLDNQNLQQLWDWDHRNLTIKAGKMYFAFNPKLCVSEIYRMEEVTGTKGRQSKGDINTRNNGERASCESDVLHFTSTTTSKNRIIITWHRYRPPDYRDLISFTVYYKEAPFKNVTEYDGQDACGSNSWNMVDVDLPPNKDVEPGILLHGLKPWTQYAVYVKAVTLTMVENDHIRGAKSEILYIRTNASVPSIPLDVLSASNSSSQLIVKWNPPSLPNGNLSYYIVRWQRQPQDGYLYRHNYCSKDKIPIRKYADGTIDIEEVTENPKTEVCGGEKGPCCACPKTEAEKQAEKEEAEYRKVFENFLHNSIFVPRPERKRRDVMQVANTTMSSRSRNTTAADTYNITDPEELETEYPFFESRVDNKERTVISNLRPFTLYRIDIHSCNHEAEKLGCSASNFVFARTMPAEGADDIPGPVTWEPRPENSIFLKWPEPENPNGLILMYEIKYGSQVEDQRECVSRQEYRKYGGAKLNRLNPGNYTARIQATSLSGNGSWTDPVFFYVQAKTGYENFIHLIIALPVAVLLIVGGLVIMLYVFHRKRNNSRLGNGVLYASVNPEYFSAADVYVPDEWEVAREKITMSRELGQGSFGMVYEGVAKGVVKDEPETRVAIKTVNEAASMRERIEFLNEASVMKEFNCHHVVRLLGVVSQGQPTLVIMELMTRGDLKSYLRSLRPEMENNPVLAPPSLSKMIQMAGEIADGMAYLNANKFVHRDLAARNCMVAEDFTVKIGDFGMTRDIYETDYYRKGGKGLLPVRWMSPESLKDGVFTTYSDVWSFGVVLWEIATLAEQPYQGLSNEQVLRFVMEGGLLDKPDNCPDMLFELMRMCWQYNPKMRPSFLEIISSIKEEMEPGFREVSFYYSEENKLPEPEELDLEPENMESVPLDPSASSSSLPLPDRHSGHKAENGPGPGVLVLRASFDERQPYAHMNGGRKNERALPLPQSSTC

[3] = molecular target: T3, AKT (Homo sapiens, UniProt Q9Y243); assay: Kinase inhibition assay (33P transfer), AKT; conditions: Table 2, kinase inhibition class; read-out: AKT3-1
T3 construct: Kinases are expressed as either kinase domains or full length constructs; made in house
Summary of the method: (§2)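 Liquid scintillation counting of 33P on plate-bound synthetic substrates gives kinase activity. Plates are washed in 0.5% phosphoric acid first; kinases are tagged recombinant proteins from E. coli or baculovirus-infected High Five cells.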

[4] = molecular target: T4, Itk (Homo sapiens, UniProt Q08881); assay: Kinase inhibition assay (33P transfer), Itk; conditions: read-out: Itk-1
T4 construct: Kinases are expressed as either kinase domains or full length constructs; made in house
T4 sequence (Q08881 1-620): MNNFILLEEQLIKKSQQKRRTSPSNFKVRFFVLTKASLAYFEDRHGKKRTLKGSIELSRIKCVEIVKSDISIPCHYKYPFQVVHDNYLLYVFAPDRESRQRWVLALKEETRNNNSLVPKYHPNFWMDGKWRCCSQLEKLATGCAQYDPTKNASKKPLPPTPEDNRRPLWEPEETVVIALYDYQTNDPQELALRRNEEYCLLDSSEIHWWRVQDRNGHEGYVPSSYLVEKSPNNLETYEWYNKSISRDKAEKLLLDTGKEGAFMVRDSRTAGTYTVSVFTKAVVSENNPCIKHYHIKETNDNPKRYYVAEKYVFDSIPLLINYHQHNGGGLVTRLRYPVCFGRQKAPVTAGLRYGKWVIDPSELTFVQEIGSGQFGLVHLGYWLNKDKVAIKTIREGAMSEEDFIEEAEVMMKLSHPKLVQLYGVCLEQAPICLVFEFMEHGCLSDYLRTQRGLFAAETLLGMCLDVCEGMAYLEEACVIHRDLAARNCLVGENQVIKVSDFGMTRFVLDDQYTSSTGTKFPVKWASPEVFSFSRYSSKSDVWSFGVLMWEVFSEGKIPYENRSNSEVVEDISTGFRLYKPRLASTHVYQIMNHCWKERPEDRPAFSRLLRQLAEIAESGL
Summary of the method: as §1

[5] = molecular target: T5, Kdr (Homo sapiens, UniProt P35968); assay: Kinase inhibition assay (33P transfer), Kdr; conditions: read-out: KDR-1
T5 construct: Kinases are expressed as either kinase domains or full length constructs; made in house
Summary of the method: as §2

[6] = molecular target: T6, Lck (Homo sapiens, UniProt P06239); assay: Kinase inhibition assay (33P transfer), Lck; conditions: read-out: Lck-1
T6 construct: Kinases are expressed as either kinase domains or full length constructs; made in house
Summary of the method: as §2

[7] = molecular target: T7, ErbB2 (Homo sapiens, UniProt P04626); assay: Kinase inhibition assay (33P transfer), ErbB2; conditions: read-out: ErbB2-2
T7 construct: Kinases are expressed as either kinase domains or full length constructs; made in house
T7 sequence (P04626 23-1255, species assumed): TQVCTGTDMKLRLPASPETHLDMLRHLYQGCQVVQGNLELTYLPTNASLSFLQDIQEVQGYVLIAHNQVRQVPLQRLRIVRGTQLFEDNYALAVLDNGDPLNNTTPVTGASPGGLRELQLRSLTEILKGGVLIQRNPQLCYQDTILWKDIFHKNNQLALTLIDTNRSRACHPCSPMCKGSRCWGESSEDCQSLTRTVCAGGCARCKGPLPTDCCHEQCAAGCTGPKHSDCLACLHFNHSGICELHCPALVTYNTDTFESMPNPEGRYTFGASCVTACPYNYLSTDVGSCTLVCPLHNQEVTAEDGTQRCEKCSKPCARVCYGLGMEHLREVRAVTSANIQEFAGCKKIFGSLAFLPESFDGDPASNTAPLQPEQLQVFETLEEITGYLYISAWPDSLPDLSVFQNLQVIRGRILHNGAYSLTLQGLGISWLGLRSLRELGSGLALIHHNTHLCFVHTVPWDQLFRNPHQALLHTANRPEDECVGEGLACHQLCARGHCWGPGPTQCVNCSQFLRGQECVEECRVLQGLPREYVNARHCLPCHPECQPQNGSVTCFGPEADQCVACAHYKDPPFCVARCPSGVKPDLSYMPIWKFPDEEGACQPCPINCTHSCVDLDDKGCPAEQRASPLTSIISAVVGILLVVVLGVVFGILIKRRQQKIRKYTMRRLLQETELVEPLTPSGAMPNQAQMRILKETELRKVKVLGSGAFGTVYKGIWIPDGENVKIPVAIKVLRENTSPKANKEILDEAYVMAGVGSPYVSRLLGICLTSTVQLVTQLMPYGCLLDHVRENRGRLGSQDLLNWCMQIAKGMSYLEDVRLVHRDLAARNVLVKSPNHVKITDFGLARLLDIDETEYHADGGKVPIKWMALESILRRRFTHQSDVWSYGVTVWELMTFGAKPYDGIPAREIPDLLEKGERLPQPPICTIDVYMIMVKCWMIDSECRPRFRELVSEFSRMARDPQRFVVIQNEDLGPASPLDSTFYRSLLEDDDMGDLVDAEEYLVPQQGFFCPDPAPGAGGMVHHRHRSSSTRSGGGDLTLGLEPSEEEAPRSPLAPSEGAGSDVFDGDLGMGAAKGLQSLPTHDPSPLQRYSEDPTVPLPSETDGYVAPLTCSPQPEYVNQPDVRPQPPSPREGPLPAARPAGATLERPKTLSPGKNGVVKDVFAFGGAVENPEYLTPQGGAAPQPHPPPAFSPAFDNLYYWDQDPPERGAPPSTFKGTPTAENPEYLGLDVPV
Summary of the method: as §1

[8] = molecular target: T8, c-Met (Homo sapiens, UniProt P08581); assay: Kinase inhibition assay (33P transfer), c-Met; conditions: Table 2, kinase inhibition class; read-out: Met-1
T8 construct: Kinases are expressed as either kinase domains or full length constructs; made in house
Summary of the method: as §1

[9] = molecular target: T9, PDGFRB (Homo sapiens, UniProt P09619); assay: Kinase inhibition assay (33P transfer), PDGFRB; conditions: read-out: PDGFRB-1
T9 construct: Kinases are expressed as either kinase domains or full length constructs; made in house
T9 sequence (P09619 33-1106, species assumed): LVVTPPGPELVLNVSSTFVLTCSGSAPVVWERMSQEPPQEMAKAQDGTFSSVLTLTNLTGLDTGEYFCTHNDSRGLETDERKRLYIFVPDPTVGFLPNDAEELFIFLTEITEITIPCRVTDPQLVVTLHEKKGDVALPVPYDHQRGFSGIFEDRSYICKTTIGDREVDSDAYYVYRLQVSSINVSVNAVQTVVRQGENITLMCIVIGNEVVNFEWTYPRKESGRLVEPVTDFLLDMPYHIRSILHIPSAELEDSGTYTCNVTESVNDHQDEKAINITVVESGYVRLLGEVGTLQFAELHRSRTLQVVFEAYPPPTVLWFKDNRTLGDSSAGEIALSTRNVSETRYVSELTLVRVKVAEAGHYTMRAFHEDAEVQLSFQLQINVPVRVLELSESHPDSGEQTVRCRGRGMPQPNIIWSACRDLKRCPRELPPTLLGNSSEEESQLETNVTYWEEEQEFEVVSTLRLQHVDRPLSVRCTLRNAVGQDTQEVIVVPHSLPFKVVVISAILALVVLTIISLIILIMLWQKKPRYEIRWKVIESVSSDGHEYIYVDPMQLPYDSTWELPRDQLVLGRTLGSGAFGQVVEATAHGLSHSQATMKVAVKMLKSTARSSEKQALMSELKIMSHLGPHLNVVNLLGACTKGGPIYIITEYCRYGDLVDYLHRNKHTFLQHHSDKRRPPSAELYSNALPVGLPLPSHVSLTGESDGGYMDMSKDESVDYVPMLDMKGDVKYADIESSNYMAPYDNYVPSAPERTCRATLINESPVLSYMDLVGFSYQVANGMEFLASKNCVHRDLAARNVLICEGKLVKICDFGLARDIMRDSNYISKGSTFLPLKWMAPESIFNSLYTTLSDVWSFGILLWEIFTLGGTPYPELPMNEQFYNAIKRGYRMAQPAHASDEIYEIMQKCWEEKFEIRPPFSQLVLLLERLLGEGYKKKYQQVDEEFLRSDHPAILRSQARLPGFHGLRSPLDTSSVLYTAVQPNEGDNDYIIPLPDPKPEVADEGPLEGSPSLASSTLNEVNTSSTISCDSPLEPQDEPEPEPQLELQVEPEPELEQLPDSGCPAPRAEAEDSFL

[10] = molecular target: T10, Zap-70 (Homo sapiens, UniProt P43403); assay: Kinase inhibition assay (33P transfer), Zap-70; conditions: read-out: Zap-1
T10 construct: Kinases are expressed as either kinase domains or full length constructs; made in house
T10 sequence (P43403 1-619): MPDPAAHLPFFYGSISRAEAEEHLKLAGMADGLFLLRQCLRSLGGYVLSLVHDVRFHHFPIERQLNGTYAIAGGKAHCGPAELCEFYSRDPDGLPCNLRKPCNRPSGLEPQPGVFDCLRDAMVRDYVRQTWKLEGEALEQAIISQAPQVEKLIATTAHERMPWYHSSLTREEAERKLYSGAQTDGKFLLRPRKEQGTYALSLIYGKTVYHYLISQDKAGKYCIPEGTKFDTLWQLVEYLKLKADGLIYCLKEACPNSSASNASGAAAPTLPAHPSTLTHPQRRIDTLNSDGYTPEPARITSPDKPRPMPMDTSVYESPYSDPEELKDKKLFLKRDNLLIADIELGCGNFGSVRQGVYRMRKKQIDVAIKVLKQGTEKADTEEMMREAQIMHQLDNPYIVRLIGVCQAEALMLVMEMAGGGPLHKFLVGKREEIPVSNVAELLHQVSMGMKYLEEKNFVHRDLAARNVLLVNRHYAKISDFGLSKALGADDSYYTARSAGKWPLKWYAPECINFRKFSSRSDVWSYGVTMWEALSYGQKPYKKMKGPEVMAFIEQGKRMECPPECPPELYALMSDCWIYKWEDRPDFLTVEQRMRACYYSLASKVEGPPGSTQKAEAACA
Summary of the method: as §2

T1 sequence (P00533 25-1210, species assumed): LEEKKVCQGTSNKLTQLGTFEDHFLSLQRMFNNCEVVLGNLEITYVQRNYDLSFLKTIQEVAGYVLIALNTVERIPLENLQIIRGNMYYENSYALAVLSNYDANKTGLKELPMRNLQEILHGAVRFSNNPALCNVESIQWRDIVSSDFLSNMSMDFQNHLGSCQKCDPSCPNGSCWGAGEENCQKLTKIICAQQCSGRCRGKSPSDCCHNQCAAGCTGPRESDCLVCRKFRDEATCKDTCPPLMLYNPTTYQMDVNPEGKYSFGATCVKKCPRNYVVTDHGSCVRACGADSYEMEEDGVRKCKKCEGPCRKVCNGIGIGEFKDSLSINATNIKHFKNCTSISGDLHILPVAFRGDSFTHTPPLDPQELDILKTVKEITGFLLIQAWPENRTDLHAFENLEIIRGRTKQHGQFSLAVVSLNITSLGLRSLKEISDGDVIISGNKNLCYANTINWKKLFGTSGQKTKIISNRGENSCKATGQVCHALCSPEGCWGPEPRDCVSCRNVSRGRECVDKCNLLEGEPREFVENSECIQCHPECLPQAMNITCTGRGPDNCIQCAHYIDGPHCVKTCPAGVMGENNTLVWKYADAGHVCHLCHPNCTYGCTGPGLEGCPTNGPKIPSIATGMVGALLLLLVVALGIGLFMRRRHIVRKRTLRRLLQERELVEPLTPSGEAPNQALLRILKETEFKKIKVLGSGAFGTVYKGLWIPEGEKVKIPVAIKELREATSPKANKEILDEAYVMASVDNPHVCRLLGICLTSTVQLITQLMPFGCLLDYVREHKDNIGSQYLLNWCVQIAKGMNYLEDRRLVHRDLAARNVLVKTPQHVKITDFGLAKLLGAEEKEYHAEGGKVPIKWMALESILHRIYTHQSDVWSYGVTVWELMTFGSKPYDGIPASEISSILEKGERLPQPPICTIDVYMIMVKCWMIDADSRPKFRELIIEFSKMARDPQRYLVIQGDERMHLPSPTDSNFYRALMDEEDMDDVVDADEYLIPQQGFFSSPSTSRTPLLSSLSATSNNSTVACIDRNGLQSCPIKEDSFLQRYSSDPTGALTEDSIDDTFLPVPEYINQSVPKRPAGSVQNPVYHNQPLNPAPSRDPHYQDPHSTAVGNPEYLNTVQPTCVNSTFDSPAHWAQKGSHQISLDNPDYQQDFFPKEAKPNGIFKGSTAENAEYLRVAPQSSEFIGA

SMILES	IC50 [1] [µM]	IC50 [2] [µM]	IC50 [3] [µM]	IC50 [4] [µM]	IC50 [5] [µM]	IC50 [6] [µM]	IC50 [7] [µM]	IC50 [8] [µM]	IC50 [9] [µM]	IC50 [10] [µM]
CN(c1cccc(Cl)c1)c1ncnc(Nc2ccc(C(F)(F)F)cc2)n1 [Compound 744]	1.05 to 6.32	> 11.8	> 11.8	> 11.8	> 11.8	> 11.8	> 11.8	> 11.8	> 11.8	> 11.8
CCN(CC)CCNc1ncnc(N(C)c2cccc(Cl)c2)n1 [Compound 745]	1.19 to 7.17	> 13.4	> 13.4	> 13.4	> 13.4	> 13.4	> 13.4	> 13.4	> 13.4	> 13.4
CN(c1cccc(Cl)c1)c1ncnc(NCCOCCO)n1 [Compound 746]	> 13.9	> 13.9	> 13.9	> 13.9	> 13.9	> 13.9	> 13.9	> 13.9	> 13.9	> 13.9
COc1cc(CNc2ncnc(N(C)c3cccc(Cl)c3)n2)cc(OC)c1OC [Compound 747]	5.77 to 8.42	> 10.8	> 10.8	> 10.8	> 10.8	> 10.8	> 10.8	> 10.8	> 10.8	> 10.8
CN(c1cccc(Cl)c1)c1ncnc(Nc2ccccc2)n1 [Compound 748]	< 1.28	7.7 to 11.2	> 14.4	> 14.4	7.7 to 11.2	1.28 to 7.7	1.28 to 7.7	1.28 to 7.7	1.28 to 7.7	> 14.4
CN(c1cccc(Cl)c1)c1ncnc(Nc2ccc(S(C)(=O)=O)cc2)n1 [Compound 749]	< 1.03	> 11.5	> 11.5	> 11.5	6.16 to 8.98	1.03 to 6.16	1.03 to 6.16	1.03 to 6.16	1.03 to 6.16	> 11.5
CN(c1cccc(Cl)c1)c1ncnc(Nc2ccc(NC(=O)OC(C)(C)C)cc2)n1 [Compound 750]	< 0.937	> 10.5	> 10.5	> 10.5	> 10.5	0.937 to 5.62	5.62 to 8.2	5.62 to 8.2	> 10.5	> 10.5
CC(=O)NS(=O)(=O)c1ccc(Nc2ncnc(N(C)c3cccc(Cl)c3)n2)cc1 [Compound 751]	< 0.924	> 10.4	> 10.4	> 10.4	0.924 to 5.54	5.54 to 8.09	> 10.4	> 10.4	0.924 to 5.54	> 10.4
CN(c1cccc(Cl)c1)c1ncnc(NC2CCN(Cc3ccccc3)CC2)n1 [Compound 752]	0.978 to 5.87	> 11	> 11	> 11	> 11	> 11	> 11	> 11	> 11	> 11
CN(c1cccc(Cl)c1)c1ncnc(Nc2cc(-c3ccco3)[nH]n2)n1 [Compound 753]	< 1.09	1.09 to 6.53	> 12.2	1.09 to 6.53	1.09 to 6.53	1.09 to 6.53	1.09 to 6.53	1.09 to 6.53	1.09 to 6.53	1.09 to 6.53
CN(c1cccc(Cl)c1)c1ncnc(Nc2cc(C(C)(C)C)on2)n1 [Compound 754]	> 12.5	> 12.5	> 12.5	> 12.5	> 12.5	> 12.5	> 12.5	> 12.5	> 12.5	> 12.5
CN(c1cccc(Cl)c1)c1ncnc(N[C@@H]2CCN(Cc3ccccc3)C2)n1 [Compound 755]	> 11.4	> 11.4	> 11.4	> 11.4	> 11.4	> 11.4	> 11.4	> 11.4	> 11.4	> 11.4
CN(c1cccc(Cl)c1)c1ncnc(Nc2ccncc2)n1 [Compound 756]	< 1.28	> 14.4	> 14.4	> 14.4	> 14.4	1.28 to 7.67	> 14.4	1.28 to 7.67	1.28 to 7.67	> 14.4
CN(c1cccc(Cl)c1)c1ncnc(Nc2ncccn2)n1 [Compound 757]	< 1.27	> 14.3	> 14.3	> 14.3	> 14.3	> 14.3	> 14.3	> 14.3	> 14.3	> 14.3
COc1ccc(Nc2ncnc(N(C)c3ccc(Cl)c(Cl)c3)n2)cc1OC [Compound 758]	< 0.985	5.91 to 8.61	> 11.1	> 11.1	0.985 to 5.91	< 0.985	< 0.985	< 0.985	< 0.985	> 11.1
Cc1ccc2c(c1)CCCN2c1ncnc(NCC2CCCO2)n1 (centres unmarked) [Compound 759]	> 13.8	> 13.8	> 13.8	> 13.8	> 13.8	> 13.8	> 13.8	> 13.8	> 13.8	> 13.8
CC(=O)Nc1ccc(Nc2ncnc(N3CCCc4cc(C)ccc43)n2)cc1 [Compound 760]	< 1.07	> 12	> 12	> 12	1.07 to 6.41	1.07 to 6.41	1.07 to 6.41	1.07 to 6.41	1.07 to 6.41	> 12
CCOC(=O)CNc1ncnc(N2CCCc3cc(C)ccc32)n1 [Compound 761]	> 13.7	> 13.7	> 13.7	> 13.7	> 13.7	> 13.7	> 13.7	> 13.7	> 13.7	> 13.7
COCCCNc1ncnc(N2CCCc3cc(C)ccc32)n1 [Compound 762]	11.2 to 14.4	> 14.4	> 14.4	> 14.4	> 14.4	> 14.4	> 14.4	> 14.4	> 14.4	> 14.4
Cc1ccc2c(c1)CCCN2c1ncnc(Nc2ccc3c(c2)C(=O)OC3)n1 [Compound 763]	< 1.07	> 12.1	> 12.1	> 12.1	1.07 to 6.43	6.43 to 9.37	1.07 to 6.43	1.07 to 6.43	6.43 to 9.37	> 12.1
